Where a name gives a salt, the structure may show the parent alone.
Assay: Inhibition of NHE1-mediated rat platelet swelling

| SMILES | IC50 |
| --- | --- |
| COc1ccc(CN2CCN(Cc3ccc(C(=O)NC(=N)N)cc3Br)CC2)c(OC)c1OC [3-bromo-N-(diaminomethylene)-4-((4-(2,3,4-trimethoxybenzyl)piperazin-1-yl)methyl)benzamide hydrochloride] | 248 nM |
| COc1ccc(CN2CCN(Cc3cccc(C(=O)NC(=N)N)c3)CC2)c(OC)c1OC [N-(diaminomethylene)-3-((4-(2,3,4-trimethoxybenzyl)piperazin-1-yl)methyl)benzamide hydrochloride] | 36.5 nM |
| CNS(=O)(=O)c1cc(C(=O)NC(=N)N)ccc1CN1CCN(Cc2ccc(OC)c(OC)c2OC)CC1 [N-(diaminomethylene)-3-(N-methylsulfamoyl)-4-((4-(2,3,4-trimethoxybenzyl)piperazin-1-yl)methyl)benzamide hydrochloride] | 15 nM |
| CCCNS(=O)(=O)c1cc(C(=O)NC(=N)N)ccc1CN1CCN(Cc2ccc(OC)c(OC)c2OC)CC1 [N-(diaminomethylene)-3-(N-propylsulfamoyl)-4-((4-(2,3,4-trimethoxybenzyl)piperazin-1-yl)methyl)benzamide hydrochloride] | 1150 nM |
| COc1ccc(CN2CCN(C(C)c3ccc(C(=O)NC(=N)N)cc3[N+](=O)[O-])CC2)c(OC)c1OC (stereo unspecified) [N-(diaminomethylene)-3-nitro-4-(1-(4-(2,3,4-trimethoxybenzyl)piperazin-1-yl)ethyl)benzamide hydrochloride] | 18.7 nM |
| COc1ccc(CN2CCN(C(C)c3ccc(C(=O)NC(=N)N)cc3)CC2)c(OC)c1OC (stereo unspecified) [N-(diaminomethylene)-4-(1-(4-(2,3,4-trimethoxybenzyl)piperazin-1-yl)ethyl)benzamide hydrochloride] | 40.5 nM |
| COc1ccc(CN2CCN(Cc3ccc(C(=O)NC(=N)N)cc3)CC2)c(OC)c1OC [N-(diaminomethylene)-4-((4-(2,3,4-trimethoxybenzyl)piperazin-1-yl)methyl)benzamide hydrochloride] | 36.4 nM |

The next molecules have a lower IC50 than those just listed; values first:

| IC50 | SMILES |
| --- | --- |
| 3.6 nM | COc1ccc(CN2CCN(Cc3ccc(C(=O)NC(=N)N)cc3[N+](=O)[O-])CC2)c(OC)c1OC |
| 11.1 nM | COc1ccc(CN2CCN(Cc3ccccc3C(=O)NC(=N)N)CC2)c(OC)c1OC [N-(diaminomethylene)-2-((4-(2,3,4-trimethoxybenzyl)piperazin-1-yl)methyl)benzamide hydrochloride] |
| 11.5 nM | COc1ccc(CN2CCN(Cc3ccc(C(=O)NC(=N)N)cc3S(N)(=O)=O)CC2)c(OC)c1OC [N-(diaminomethylene)-3-sulfamoyl-4-((4-(2,3,4-trimethoxybenzyl)piperazin-1-yl)methyl)benzamide hydrochloride] |
| 14.2 nM | COc1ccc(CN2CCN(Cc3cc(C(=O)NC(=N)N)ccc3[N+](=O)[O-])CC2)c(OC)c1OC [N-(diaminomethylene)-4-nitro-3-((4-(2,3,4-trimethoxybenzyl)piperazin-1-yl)methyl)benzamide hydrochloride] |

Reference: BindingDB's records for doi:10.1016/j.bmcl.2009.04.079 (China Pharmaceutical University, 2009)
